Test results published in PMC6493465 (Oncotarget, 2019).
Where a name gives a salt, the structure may show the parent alone. Read-outs that look alike come from different tables or passages of the source. Values belong to the compound of their own block, whether it stands above or below them.

Tests used:
[1] = Pharmacokinetic assays (plasma and tumor) in nude mice xenografted with MV4-11 cells; type: in vivo, mouse; settings: for half-life / AUC / clearance / Vd / Cmax / Tmax: nude, mouse; for AUC: read-out: AUC24; for clearance: read-out: CLtot (converted); for Vd: read-out: Vss; for concentration in tumor fraction versus plasma fraction: xenografted mice
Experimental: Plasma samples were prepared by centrifugation (n=3 per group; one sample in the combination group was excluded due to improper handling). […] These assays were conducted by Astellas Research Technologies Co., Ltd. under the guidance of Analysis & Pharmacokinetics Research Laboratories, Astellas Pharma, Inc., or by Nemoto Science Co., Ltd. (Ibaraki, Japan). […] Body weight and tumor assessments obtained on with MV4-11 cells received one of the following Day −1 were designated as Day 0 (baseline) measurements. combination treatments: 1. […] The percent tumor regression was calculated using the formula: […]

MOLM-13 cells = experiment: Annexin-V staining (apoptosis), MOLM-13; type: cell-based, human; settings: single agent: IDR 3 nM, AraC 100 nM or Aza 1000 nM, 48 hours
Experimental: MV4-11 cells were seeded in 12-well plates at a concentration of 2 × 10^5 cells/well and cultured overnight. […] MOLM-13 cells were seeded in 12-well plates at a concentration of 1 × 10^5 cells/well and cultured overnight.
Cells were harvested and incubated with Guava® Nexin Reagent (Merck Millipore Corporation, Billerica, MA). Annexin-V-positive cells were assessed using a Guava® PCA microcytometer (Merck Millipore Corporation); the percentage of annexin-V-positive cells (2000 cells per sample) was analyzed using CytoSoft™ software (Merck Millipore Corporation). Mean percentages of annexin-V-positive cells were derived from three independent experiments.

[2] = test system: MCL-1, BCL2L10, survivin and cPARP in MOLM-13 cells; experiment: Western blot analysis of anti-apoptotic protein expression, MOLM-13; type: cell-based, human; settings: MOLM-13, 24-hour treatment; gilteritinib 30 nM, AraC 100 nM, IDR 3 nM, Aza 1000 nM
Experimental: Cell lysates were prepared in radioimmunoprecipitation assay buffer (Thermo Fisher Scientific Inc., Rockford, IL) supplemented with phosphatase (Thermo Fisher Scientific Inc.) and protease inhibitors (Merck, Billerica, MA), electrophoresed on 4%–15% gels, and subsequently transferred to polyvinylidene difluoride membranes. The membranes were blocked using Blocking One (Nacalai Tesque Inc., Kyoto, Japan) for 1 hour and then incubated overnight with primary antibodies to MCL-1, BCL210, cPARP (all from Cell Signaling Technology, Danvers, MA, USA), survivin (R&D Systems, Inc., Minneapolis, MN), and α-actin (MilliporeSigma, Burlington, MA). The membranes were washed with TBS Tween-20 (TBS-T) buffer and incubated with appropriate horseradish peroxidase-linked secondary antibodies (Cell Signaling Technology Japan K.K.) for 1 hour at room temperature. After washing the membranes in TBS-T buffer, enhanced chemiluminescence Western Blotting Detection Reagent ECL-prime (GE Healthcare, Fairfield, CT) was applied. Signals were detected with a charge-coupled device camera (ImageQuant LAS4000; GE Healthcare); signal intensity was quantified using ImageQuant™ TL software (GE Healthcare).

[3] = idarubicin in tumor, with versus without gilteritinib
[4] = tumor, iv, 0.5 mg/kg, idarubicin in tumor, gilteritinib 0, AraC 50, IDR 0.5 mg/kg
[5] = tumor, iv, idarubicin in tumor, gilteritinib 3, AraC 50, IDR 0.5 mg/kg
[6] = plasma, ip, 50 mg/kg, AraC in plasma, gilteritinib 3, AraC 50, IDR 0.5 mg/kg
[7] = plasma, ip, AraC in plasma, gilteritinib 0, AraC 50, IDR 0.5 mg/kg
[8] = tumor, ip, 50 mg/kg, AraC in tumor, gilteritinib 3, AraC 50, IDR 0.5 mg/kg
[9] = tumor, ip, AraC in tumor, gilteritinib 0, AraC 50, IDR 0.5 mg/kg

AUC24 ratio ([1]; idarubicin in plasma, with versus without gilteritinib): 1.23
AUC24 ([1]; idarubicin in tumor, gilteritinib 0, AraC 50, IDR 0.5 mg/kg): 4491 ng·h/g
AUC24 ([1]; idarubicin in tumor, gilteritinib 3, AraC 50, IDR 0.5 mg/kg): 4855 ng·h/g
AUC24 ratio [1, 3]: 1.08
Cmax ratio [1, 3]: 1.11
half-life ([1]; plasma, iv): 2.24 h
half-life ([1]; plasma, iv, 0.5 mg/kg): 1.49 h
AUC ([1]; plasma, iv, 0.5 mg/kg, idarubicin in plasma, gilteritinib 0, AraC 50, IDR 0.5 mg/kg): 63.3 ng·h/mL
clearance ([1]; plasma, iv, 0.5 mg/kg): 217 mL/min/kg
Vd ([1]; plasma, iv, 0.5 mg/kg): 26.7 L/kg
AUC ([1]; plasma, iv, idarubicin in plasma, gilteritinib 3, AraC 50, IDR 0.5 mg/kg): 77.9 ng·h/mL
clearance ([1]; plasma, iv): 172 mL/min/kg
Vd ([1]; plasma, iv): 31.5 L/kg
Cmax [1, 4]: 204 ng/g
Tmax [1, 4]: 4 h
Cmax [1, 5]: 226 ng/g
Tmax [1, 5]: 24 h
concentration in tumor fraction versus plasma fraction [1]: higher in the tumor fraction
SMILES: CC(=O)[C@]1(O)Cc2c(O)c3c(c(O)c2[C@@H](O[C@H]2C[C@H](N)[C@H](O)[C@H](C)O2)C1)C(=O)c1ccccc1C3=O [IDR, Idarubicin hydrochloride]
mean percentage of annexin V-positive cells (MOLM-13 cells): 36.6%
expression of MCL-1, BCL2L10, and survivin [2]: little effect

AUC24 ratio ([1]; AraC in plasma, with versus without gilteritinib): 0.32
AUC24 ([1]; AraC in tumor, gilteritinib 0, AraC 50, IDR 0.5 mg/kg): 7968 ng·h/g
AUC24 ratio ([1]; AraC in tumor, with versus without gilteritinib): 1.13
Cmax [1, 6]: 18000 ng/mL
Tmax [1, 6]: 0.083 h
AUC [1, 6]: 9960 ng·h/mL
Cmax [1, 7]: 28700 ng/mL
Tmax [1, 7]: 0.25 h
AUC [1, 7]: 31600 ng·h/mL
Cmax [1, 8]: 1060 ng/g
Tmax [1, 8]: 2 h
Cmax [1, 9]: 904 ng/g
Tmax [1, 9]: 2 h
concentration in tumor fraction versus plasma fraction [1]: higher in the plasma fraction
SMILES: Nc1ccn([C@@H]2O[C@H](CO)[C@@H](O)[C@@H]2O)c(=O)n1 [AraC, Cytarabine]
mean percentage of annexin V-positive cells (MOLM-13 cells): 21.9%
expression of MCL-1, BCL2L10, and survivin [2]: little effect
